Measurements published in PubChem BioAssay (NCI).
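48-hour exposure; five concentrations; linearly interpolated endpoints. GI50 = concentration required for 50% inhibition of growth. TGI denotes the concentration required for complete inhibition of growth.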

Assays:
Test in all cases: NCI-60 cell line screen, 48 h
SF-539 CNS = tested on: SF-539 CNS
MDA-MB-435 = tested on: MDA-MB-435
K-562 leukemia = tested on: K-562 leukemia
SK-MEL-28 melanoma = tested on: SK-MEL-28 melanoma
SK-MEL-2 melanoma = tested on: SK-MEL-2 melanoma
HL-60(TB) leukemia = tested on: HL-60(TB) leukemia
OVCAR-5 ovarian = tested on: OVCAR-5 ovarian
TK-10 renal = tested on: TK-10 renal
T-47D breast = tested on: T-47D breast
SK-MEL-5 melanoma = tested on: SK-MEL-5 melanoma
NCI-H226 lung = tested on: NCI-H226 lung
SF-268 CNS = tested on: SF-268 CNS
KM12 colon = tested on: KM12 colon
M14 melanoma = tested on: M14 melanoma
SN12C renal = tested on: SN12C renal
HCC-2998 colon = tested on: HCC-2998 colon
MDA-MB-468 breast = tested on: MDA-MB-468 breast
PC-3 prostate = tested on: PC-3 prostate
SNB-19 CNS = tested on: SNB-19 CNS
UO-31 renal = tested on: UO-31 renal
DU-145 prostate = tested on: DU-145 prostate
SNB-75 CNS = tested on: SNB-75 CNS
HOP-92 NSCLC = tested on: HOP-92 NSCLC
RPMI-8226 leukemia = tested on: RPMI-8226 leukemia
EKVX NSCLC = tested on: EKVX NSCLC
HCT-15 colon = tested on: HCT-15 colon
ACHN renal = tested on: ACHN renal
BT-549 breast = tested on: BT-549 breast
OVCAR-4 ovarian = tested on: OVCAR-4 ovarian
OVCAR-8 ovarian = tested on: OVCAR-8 ovarian
SF-295 CNS = tested on: SF-295 CNS
UACC-257 melanoma = tested on: UACC-257 melanoma
HCT-116 colon = tested on: HCT-116 colon
MDA-MB-231 breast = tested on: MDA-MB-231 breast
IGROV1 ovarian = tested on: IGROV1 ovarian
HS 578T breast = tested on: HS 578T breast
A549 NSCLC = tested on: A549 NSCLC
MOLT-4 leukemia = tested on: MOLT-4 leukemia
SR leukemia = tested on: SR leukemia
MALME-3M melanoma = tested on: MALME-3M melanoma
NCI-H522 lung = tested on: NCI-H522 lung
CAKI-1 renal = tested on: CAKI-1 renal
SK-OV-3 ovarian = tested on: SK-OV-3 ovarian
786-0 renal = tested on: 786-0 renal
UACC-62 melanoma = tested on: UACC-62 melanoma
U251 CNS = tested on: U251 CNS
MCF7 breast = tested on: MCF7 breast
COLO 205 colon = tested on: COLO 205 colon
A498 renal = tested on: A498 renal
NCI-H460 lung = tested on: NCI-H460 lung
CCRF-CEM leukemia = tested on: CCRF-CEM leukemia
LOX IMVI melanoma = tested on: LOX IMVI melanoma
HOP-62 NSCLC = tested on: HOP-62 NSCLC
NCI/ADR-RES ovarian = tested on: NCI/ADR-RES ovarian
HT29 colon = tested on: HT29 colon
SW-620 colon = tested on: SW-620 colon
OVCAR-3 ovarian = tested on: OVCAR-3 ovarian
RXF 393 renal = tested on: RXF 393 renal
NCI-H23 lung = tested on: NCI-H23 lung

C#CCN(C)CCCOc1ccc(N(CC)C(=O)c2cc(C(C)C)c(O)cc2O)cc1Cl
GI50 (SF-539 CNS): 361 nM
TGI (SF-539 CNS): 12800 nM
GI50 (MDA-MB-435): 174 nM
TGI (MDA-MB-435): 12000 nM
GI50 (K-562 leukemia): 91.4 nM
TGI (K-562 leukemia): 23000 nM
GI50 (SK-MEL-28 melanoma): 413 nM
TGI (SK-MEL-28 melanoma): 12700 nM
GI50 (SK-MEL-2 melanoma): 979 nM
TGI (SK-MEL-2 melanoma): 15500 nM
GI50 (HL-60(TB) leukemia): 73 nM
TGI (HL-60(TB) leukemia): 2720 nM
GI50 (OVCAR-5 ovarian): 482 nM
TGI (OVCAR-5 ovarian): 16000 nM
GI50 (TK-10 renal): 195 nM
TGI (TK-10 renal): 12300 nM
GI50 (T-47D breast): 88.8 nM
TGI (T-47D breast): 11900 nM
GI50 (SK-MEL-5 melanoma): 397 nM
TGI (SK-MEL-5 melanoma): 1790 nM
GI50 (NCI-H226 lung): 604 nM
TGI (NCI-H226 lung): 17900 nM
GI50 (SF-268 CNS): 1660 nM
TGI (SF-268 CNS): 23900 nM
GI50 (KM12 colon): 111 nM
TGI (KM12 colon): 10500 nM
GI50 (M14 melanoma): 462 nM
TGI (M14 melanoma): 13000 nM
GI50 (SN12C renal): 105 nM
TGI (SN12C renal): 8280 nM
GI50 (HCC-2998 colon): 273 nM
TGI (HCC-2998 colon): 1910 nM
GI50 (MDA-MB-468 breast): 115 nM
TGI (MDA-MB-468 breast): 462 nM
GI50 (PC-3 prostate): 232 nM
TGI (PC-3 prostate): 14700 nM
GI50 (SNB-19 CNS): 430 nM
TGI (SNB-19 CNS): 13400 nM
GI50 (UO-31 renal): 156 nM
TGI (UO-31 renal): 13200 nM
GI50 (DU-145 prostate): 59.5 nM
TGI (DU-145 prostate): 15300 nM
GI50 (SNB-75 CNS): 947 nM
TGI (SNB-75 CNS): 16100 nM
GI50 (HOP-92 NSCLC): 446 nM
TGI (HOP-92 NSCLC): 2700 nM
GI50 (RPMI-8226 leukemia): 294 nM
TGI (RPMI-8226 leukemia): 3170 nM
GI50 (EKVX NSCLC): 484 nM
TGI (EKVX NSCLC): 8530 nM
GI50 (HCT-15 colon): 94.8 nM
TGI (HCT-15 colon): 12200 nM
GI50 (ACHN renal): 105 nM
TGI (ACHN renal): 12700 nM
GI50 (BT-549 breast): 1750 nM
TGI (BT-549 breast): 14300 nM
GI50 (OVCAR-4 ovarian): 1630 nM
TGI (OVCAR-4 ovarian): 19400 nM
GI50 (OVCAR-8 ovarian): 219 nM
TGI (OVCAR-8 ovarian): 15600 nM
GI50 (SF-295 CNS): 384 nM
TGI (SF-295 CNS): 12600 nM
GI50 (UACC-257 melanoma): 434 nM
TGI (UACC-257 melanoma): 11400 nM
GI50 (HCT-116 colon): 138 nM
TGI (HCT-116 colon): 13300 nM
GI50 (MDA-MB-231 breast): 230 nM
TGI (MDA-MB-231 breast): 2750 nM
GI50 (IGROV1 ovarian): 193 nM
TGI (IGROV1 ovarian): 13600 nM
GI50 (HS 578T breast): 1560 nM
TGI (HS 578T breast): 21100 nM
GI50 (A549 NSCLC): 146 nM
TGI (A549 NSCLC): 15000 nM
GI50 (MOLT-4 leukemia): 139 nM
TGI (MOLT-4 leukemia): 13200 nM
GI50 (SR leukemia): 48.3 nM
TGI (SR leukemia): 8500 nM
GI50 (MALME-3M melanoma): 207 nM
TGI (MALME-3M melanoma): 1580 nM
GI50 (NCI-H522 lung): 121 nM
TGI (NCI-H522 lung): 5480 nM
GI50 (CAKI-1 renal): 350 nM
TGI (CAKI-1 renal): 14600 nM
GI50 (SK-OV-3 ovarian): 52.1 nM
TGI (SK-OV-3 ovarian): 12400 nM
GI50 (786-0 renal): 1370 nM
TGI (786-0 renal): 17400 nM
GI50 (UACC-62 melanoma): 174 nM
TGI (UACC-62 melanoma): 793 nM
GI50 (U251 CNS): 399 nM
TGI (U251 CNS): 15100 nM
GI50 (MCF7 breast): 56.1 nM
TGI (MCF7 breast): 13700 nM
GI50 (COLO 205 colon): 3080 nM
TGI (COLO 205 colon): 13400 nM
GI50 (A498 renal): 679 nM
TGI (A498 renal): 15500 nM
GI50 (NCI-H460 lung): 68.7 nM
TGI (NCI-H460 lung): 10900 nM
GI50 (CCRF-CEM leukemia): 85.7 nM
TGI (CCRF-CEM leukemia): 13300 nM
GI50 (LOX IMVI melanoma): 139 nM
TGI (LOX IMVI melanoma): 359 nM
GI50 (HOP-62 NSCLC): 400 nM
TGI (HOP-62 NSCLC): 19000 nM
GI50 (NCI/ADR-RES ovarian): 339 nM
TGI (NCI/ADR-RES ovarian): 7320 nM
GI50 (HT29 colon): 2970 nM
TGI (HT29 colon): 13100 nM
GI50 (SW-620 colon): 192 nM
TGI (SW-620 colon): 13800 nM
GI50 (OVCAR-3 ovarian): 595 nM
TGI (OVCAR-3 ovarian): 14900 nM
GI50 (RXF 393 renal): 917 nM
TGI (RXF 393 renal): 12500 nM
GI50 (NCI-H23 lung): 346 nM
TGI (NCI-H23 lung): 13900 nM
